Assay results reported in patent publication US5728670A, “Enzymatically stable alkyl (alkyl glycosid) uronates as nonionic surfactants and a process for their manufacture” (Lever Brothers Company, Division of Conopco, Inc., priority 1993, dated 1998).

Columns and labels:
[1] = biological target: T1, Lipolase (Thermomyces lanuginosus, UniProt O59952); assay: Enzyme stability: Lipolase-catalyzed hydrolysis monitored by pH-stat titration; type: biochemical; settings: for MEAN SLOPE: Tris-HCl pH 8.0, 30° C., acid production titrated with 0.1N NaOH; for STABILITY / REL VELOCITY: Lipolase hydrolysis; for STABILITY: fold relative to α-methyl D-glucose monolaurate; for REL VELOCITY: relative to α-methyl D-glucose monolaurate = 100
T1 sequence (O59952 23-291): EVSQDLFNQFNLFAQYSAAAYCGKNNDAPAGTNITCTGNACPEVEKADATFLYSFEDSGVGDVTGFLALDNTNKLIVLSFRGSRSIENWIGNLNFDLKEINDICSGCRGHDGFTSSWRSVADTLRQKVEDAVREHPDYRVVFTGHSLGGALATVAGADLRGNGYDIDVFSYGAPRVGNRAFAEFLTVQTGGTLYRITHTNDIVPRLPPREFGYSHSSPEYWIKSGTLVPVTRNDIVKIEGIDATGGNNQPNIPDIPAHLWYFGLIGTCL
Procedure: Enzyme catalyzed hydrolysis of uronates was monitored using a TitraLab (Radiometer, Copenhagen) pH-stat autotitrator. Emulsified substrate was prepared by mixing water (5 mL), 1-butanol (1 mL), acacia gum (1 g), and substrate (0.357 mmoles) using a homogenizer (Omni-mixer, OCI Instruments)for 15 minutes. Emulsified substrate (5 mL) was mixed with Tris-HCl buffer (20 mL, 100 mM, pH 8.0) and equilibrated at 30° C. in a thermostatic reaction cup. Lipolase (20.5 LU) was added to initiate the reaction and the production of acid was monitored by titration with 0.1N NaOH.

[2] = Wash cycle stability (t1/2) by automatic titrator; type: physicochemical; settings: 40° C., pH=10, 8.13×10^-3 M concentration; 8130 µM
Procedure: The wash cycle stability or half-life (t1/2) of decyl(methyl α-D-galactopyranosid)uronate was determined using an automatic titrator at 40° C., pH=10, 8.13×10^-3 M concentration.

MEAN SLOPE ([1]; Lipolase 20.5 LU)	STABILITY [1] [X]	REL VELOCITY [1]	Wash cycle stability or half-life (t1/2) [2] [h]	Enzyme stability to lipolase hydrolysis (in words) ([1]; Lipolase 20.5 LU, pH 8.0, 30° C.)	SMILES
1.6880	2.4	42	–	–	CCCCCCCCCCCC(=O)OC[C@H]1OC(O)[C@H](O)[C@@H](O)[C@@H]1O (stereo partly drawn) [D-Glucose Mono-laurate, D-glucose monolaurate]
–	–	–	7.9	–	CCCCCCCCCCOC(=O)[C@H]1O[C@H](OC)[C@H](O)[C@@H](O)[C@H]1O [Decyl(Methyl α-D-Galactopyranosid)uronate]
0.7101	5.6	18	–	–	CCCCCCCCCCOC(=O)[C@H]1O[C@@H](OC)[C@H](O)[C@@H](O)[C@H]1O [Decyl(Methyl β-D-Galactopyranosid)uronate]
–	–	–	–	very stable/slow hydrolysis	CCCCCCOC(=O)[C@H]1O[C@H](OC)[C@H](O)[C@@H](O)[C@H]1O [Hexyl(Methyl α-D-Galactopyranosid)uronate]
3.9921	1	100	–	–	CCCCCCCCCCCC(=O)OC[C@H]1O[C@H](OC)[C@H](O)[C@@H](O)[C@@H]1O [α-Methyl D-Glucose Monolaurate, α-methyl D-glucose monolaurate]
